# What was measured:
# [1] = test system: p38 phosphorylation in AB12 cells; test: Western blot, phosphorylation of p38 (Example 1); assay type: cell-based, mouse; conditions: 24 h
# Method: (§1) Western blotting. AB12 and AC29 cells were plated on 6-well plates in normal culture medium until near confluency. The cells were then rinsed with sterile PBS and cultured for further 24 h in serum-free culture medium, in the presence or absence of 2×10^−4-10^−5 M risedronate, zoledronate or PBS control, with or without 25 μM geranylgeraniol, or the same volume of ethanol as a vehicle control. Culture medium was discarded and the cells were harvested in lysis buffer (20 mM Tris pH 7.4, 150 mM NaCl, 1 mM EDTA, 1 mM EGTA, 1% Triton, 2.5 mM sodium pyrophosphate, 1 mM β-glycerolphosphate, 1 mM Na3VO4, 1 μg/ml leupeptin (Cell Signaling Technology, Inc.; Danvers, Mass.)) and clarified by centrifugation. After boiling the supernatants in reducing SDS sample buffer, equal amounts of protein (˜50 μg) were loaded per lane and the samples were electrophoresed on 10% polyacrylamide SDS gel and transferred to a nitrocellulose membrane. Unprenylated Rap1A was detected with the antibody SC-1482 and total Rap1 (both prenylated and unprenylated forms of both Rap1A and Rap1B) was detected with the antibody SC-65 (Santa Cruz Biotechnology, Inc.; Santa Cruz, Calif.), according to the manufacturer's recommendations. The phosphorylation status of p38 was studied with anti-phospho-p38 and anti-total p38 antibodies (Cell Signaling Technology, Inc.), as recommended by the manufacturer. […]
# [2] = test system: p38 phosphorylation in AC29 cells; test: Western blot, phosphorylation of p38 (Example 1); assay type: cell-based, mouse; conditions: 24 h
# Method: as §1
# [3] = test system: AB12 cells; test: Subcutaneous mouse mesothelioma model, tumor volume; assay type: in vivo; conditions: AB12 s.c. in BALB/c mice; risedronate 15 mg/kg (P<0.02), zoledronate 0.5 mg/kg (P<0.003); every six days, 4 treatments from day 10
# Method: (§2) In vivo mesothelioma models. Female BALB/c mice, four to eight weeks of age, were obtained from the National Cancer Institute-Frederick Cancer Research Facility (Frederick, Md.) and were housed in the Pathogen-Free Rodent Shared Facility (Comprehensive Cancer Center, University of Alabama at Birmingham). All animal procedures were performed, in accordance with recommendations for the proper care and use of laboratory animals and were approved by the local IACUC. Subcutaneous (s.c.) and intraperitoneal (i.p.) mouse mesothelioma models were evaluated. In the s.c. model, 3×10^6 AB12 cells were first injected s.c. into cohorts of BALB/c mice. Treatments with i.p. BPs or vehicle were started when tumors became palpable on day 10 and continued every six days for a total of 4 treatments. Tumor size was measured bidimensionally with calipers every two to three days and tumor volume calculated by the formula (length×width^2)÷2. Mice were euthanized before tumors reached the size of 2000 mm^3. In the i.p. model, AC29 or AB12 cells (5×10^5/0.5 ml) were injected i.p, into cohorts of 10-12 BALB/c using a 26-gauge needle. Treatment was initiated 6 days after tumor inoculation and the mice were followed for survival. In the i.p. model risedronate (15 mg/kg), zoledronate (0.5 mg/kg) or PBS were administered i.p. three times a week for two weeks.
# [4] = test system: AB12 cells; test: Intraperitoneal mouse mesothelioma model, survival; assay type: in vivo, BALB/c mice; conditions: AB12 i.p.
# Method: as §2
# [5] = test system: unprenylated Rap1A in AB-12 mesothelioma cells; test: Western blot, unprenylated Rap1A (Example 2); assay type: cell-based, mouse; conditions: AB-12 cells; 24 h
# Method: Western blot analysis. Cells were cultured on 6-well plates in normal culture medium until near confluency. The cells were then rinsed with sterile PBS and cultured for further 24 h in serum-tree culture medium, in the presence or absence of the indicated bisphosphonates. Some cultures were also treated with 25 μM geranylgeraniol (cold, all trans), 1.0 μg/ml LPS (Sigma; St. Louis, Mo.) 10 ng/ml IL-1β (R&D Systems; Minneapolis, Minn.) or TNF-α (R&D Systems). To study bisphosphonate effects on connexin-43 expression, the cells were cultured for 24 h in serum-free culture medium in the presence of the indicated bisphosphonates or PBS as a vehicle control. Culture medium was then discarded, the cells were quickly lysed and prepared into Western blot samples, as described in Merrell et al. (2000) Breast Cancer Res. Treat. 81, 231-241. After boiling the supernatants in reducing sodium docedyl sulfate (SDS) sample buffer, equal amounts of protein (˜20-50 μg) were loaded per lane and the samples were electrophoresed on 10% SDS polyacrylamide gel and transferred to a nitrocellulose membrane. To detect, unprenylated Rap1A, the blots were incubated overnight at 4° C. with the antibody SC-1482 (Santa Cruz Technology (San Diego, Calif.)), diluted 1:1000 in Tris-buffered saline, 0.1% (v/v) Tween-20 (TEST), and then with peroxidase-conjugated anti-goat serum (Pierce; Rockford, Ill.), diluted 1:1000 in TBST. Total Rap1 was detected from stripped blots in a similar fashion, with the antibody SC-65 (Santa Cruz Technology). The phosphorylation status of p38 was investigated using anti-phospho-p38 (Cell Signaling; Beverly, Mass.) and after stripping of the membrane, with anti-total p38 antibodies (Cell Signaling), according to the manufacturer's instructions. Expression of connexin-43 was detected with a rabbit anti-connexin-43 antibody (Zymed Laboratories, Inc.; San Francisco, Calif.), diluted 1:1000 in TBST. The protein bands were visualized by chemiluminescence using SuperSignal West Pico ECL kit (Pierce Biotechnology, Inc.; Rockford, Ill.).
# [6] = test system: AB-12 cells; test: Cell viability, MTS-assay; assay type: cell-based, mouse
# Method: Cell viability assays. Cells were plated on 96-well plates at the density of 1×10^3 cells in 100 μl per well in normal culture medium, with or without of the indicated concentrations of the various bisphosphonate combinations and or 1 mM CaCl2, 1 mM EGTA or vehicle and cultured for 48 h. Cell viability was assessed with 3-(4,5-dimethylthiazol-2-yl)-5-(3-carboxy tetrazolium, inner salt (MTS)-assays (CellTiter Aqueous One 96 from Promega; Madison, Wis.) according to the manufacturer's instructions. For each treatment, a PBS-control group was run simultaneously on the same plate. The results for each treatment were calculated as % of the corresponding PBS-group.
smiles,measurement,setting,value
O=P(O)(O)C(O)(Cc1cccnc1)P(=O)(O)O [risedronate],p38 phosphorylation,[1],dose-dependent increase
same,p38 phosphorylation,[2],dose-dependent increase
same,subcutaneous tumor growth,[3],inhibited subcutaneous tumor growth
same,long-term (> 60 days) survivors,"[4]; groups of 12 mice, risedronate 15 mg/kg i.p.",three
same,median survival,"[4]; zoledronate 0.5 mg/kg or risedronate 15 mg/kg i.p. three times a week for two weeks, PBS 26 days",30 days
same,accumulation of unprenylated Rap1A,[5],dose-dependent accumulation
same,effect of added Ca2+ on the bisphosphonate's growth inhibitory effect,"[6]; 1 mM CaCl2, N-BP 10^−4 M or p-BP 10^−3 M",enhanced
same,effect of added EGTA on the bisphosphonate's growth inhibitory effect,"[6]; 1 mM EGTA, N-BP 10^−4 M",enhanced
same,effect of excess clodronate on the viability change induced by the nitrogen-containing bisphosphonate,[6]; N-BP 10^−4 M + clodronate 10^−3 M,"decreased slightly, but significantly cell viability"
same,effect of excess etidronate on the viability change induced by the nitrogen-containing bisphosphonate,[6]; N-BP 10^−4 M + etidronate 10^−3 M,decreased cell viability

# Source: patent publication US20090075941A1, “TREATING NEOPLASMS” (THE UAB RESEARCH FOUNDATION, priority 2006, published 2009)
